What was measured:
Experiment in all cases: KINOMEscan competition binding
Details in all cases: compound 10.0 µM
ADCK4 (human) = ADCK4 (human) (UniProt Q96D53)
CAMK2D (human) = CAMK2D (human) (UniProt Q13557)
CDKL1 (human) = CDKL1 (human) (UniProt Q00532)
CHEK2 (human) = CHEK2 (human) (UniProt O96017)
CIT (human) = CIT (human) (UniProt O14578)
CRK2 (P.falciparum) = CRK2 (P.falciparum) (UniProt P61075)
CSNK1G2 (human) = CSNK1G2 (human) (UniProt P78368)
CSNK1G3 (human) = CSNK1G3 (human) (UniProt Q9Y6M4)
DCLK1 (human) = DCLK1 (human) (UniProt O15075)
DYRK1A (human) = DYRK1A (human) (UniProt Q13627)
EPHA1 (human) = EPHA1 (human) (UniProt P21709)
EPHB3 (human) = EPHB3 (human) (UniProt P54753)
HIPK3 (human) = HIPK3 (human) (UniProt Q9H422)
IKBKB (human) = IKBKB (human) (UniProt O14920)
[1] = biological target: JAK3 JH1 catalytic (human) (UniProt P52333)
KDR (human) = KDR (human) (UniProt P35968)
LIMK1 (human) = LIMK1 (human) (UniProt P53667)
MAP3K1 (human) = MAP3K1 (human) (UniProt Q13233)
MAP3K6 (human) = MAP3K6 (human) (UniProt O95382)
MAP4K1 (human) = MAP4K1 (human) (UniProt Q92918)
MAPK8 (human) = MAPK8 (human) (UniProt P45983)
MARK3 (human) = MARK3 (human) (UniProt P27448)
NTRK1 (human) = NTRK1 (human) (UniProt P04629)
NTRK2 (human) = NTRK2 (human) (UniProt Q16620)
NTRK3 (human) = NTRK3 (human) (UniProt Q16288)
PAK7 (human) = PAK7 (human) (UniProt Q9P286)
PLK1 (human) = PLK1 (human) (UniProt P53350)
PLK4 (human) = PLK4 (human) (UniProt O00444)
PRKCD (human) = PRKCD (human) (UniProt Q05655)
PRKCH (human) = PRKCH (human) (UniProt P24723)
PRKD1 (human) = PRKD1 (human) (UniProt Q15139)
PRKX (human) = PRKX (human) (UniProt P51817)
RIPK1 (human) = RIPK1 (human) (UniProt Q13546)
RPS6KA6 KD2 (human) = RPS6KA6 KD2 (human) (UniProt Q9UK32)
SLK (human) = SLK (human) (UniProt Q9H2G2)
STK4 (human) = STK4 (human) (UniProt Q13043)
SYK (human) = SYK (human) (UniProt P43405)
TLK2 (human) = TLK2 (human) (UniProt Q86UE8)
TNNI3K (human) = TNNI3K (human) (UniProt Q59H18)
YES1 (human) = YES1 (human) (UniProt P07947)

Sequence of NTRK3 (human) (Q16288 whole entry, looked up): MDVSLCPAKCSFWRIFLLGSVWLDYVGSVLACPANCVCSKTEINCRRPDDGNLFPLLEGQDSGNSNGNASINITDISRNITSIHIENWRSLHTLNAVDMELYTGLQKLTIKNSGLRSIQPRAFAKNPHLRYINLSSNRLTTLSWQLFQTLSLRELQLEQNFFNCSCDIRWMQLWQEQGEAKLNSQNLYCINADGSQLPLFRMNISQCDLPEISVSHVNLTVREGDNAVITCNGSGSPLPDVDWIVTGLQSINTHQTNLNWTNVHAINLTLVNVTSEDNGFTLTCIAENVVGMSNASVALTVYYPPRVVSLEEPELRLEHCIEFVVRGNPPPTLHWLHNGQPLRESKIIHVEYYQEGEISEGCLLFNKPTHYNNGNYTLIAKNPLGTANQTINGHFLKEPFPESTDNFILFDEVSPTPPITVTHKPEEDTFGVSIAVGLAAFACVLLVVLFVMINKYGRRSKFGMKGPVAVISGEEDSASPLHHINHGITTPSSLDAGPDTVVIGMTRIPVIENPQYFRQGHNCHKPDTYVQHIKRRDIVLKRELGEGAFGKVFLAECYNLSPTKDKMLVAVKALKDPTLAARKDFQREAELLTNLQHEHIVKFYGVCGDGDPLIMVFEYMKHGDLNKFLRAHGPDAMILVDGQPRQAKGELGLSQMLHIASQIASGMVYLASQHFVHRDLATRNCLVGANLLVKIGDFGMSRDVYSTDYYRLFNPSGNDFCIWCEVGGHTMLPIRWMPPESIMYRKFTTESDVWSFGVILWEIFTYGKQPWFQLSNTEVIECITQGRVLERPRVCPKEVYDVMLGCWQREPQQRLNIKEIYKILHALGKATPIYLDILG
Sequence of TNNI3K (human) (Q59H18 whole entry, looked up): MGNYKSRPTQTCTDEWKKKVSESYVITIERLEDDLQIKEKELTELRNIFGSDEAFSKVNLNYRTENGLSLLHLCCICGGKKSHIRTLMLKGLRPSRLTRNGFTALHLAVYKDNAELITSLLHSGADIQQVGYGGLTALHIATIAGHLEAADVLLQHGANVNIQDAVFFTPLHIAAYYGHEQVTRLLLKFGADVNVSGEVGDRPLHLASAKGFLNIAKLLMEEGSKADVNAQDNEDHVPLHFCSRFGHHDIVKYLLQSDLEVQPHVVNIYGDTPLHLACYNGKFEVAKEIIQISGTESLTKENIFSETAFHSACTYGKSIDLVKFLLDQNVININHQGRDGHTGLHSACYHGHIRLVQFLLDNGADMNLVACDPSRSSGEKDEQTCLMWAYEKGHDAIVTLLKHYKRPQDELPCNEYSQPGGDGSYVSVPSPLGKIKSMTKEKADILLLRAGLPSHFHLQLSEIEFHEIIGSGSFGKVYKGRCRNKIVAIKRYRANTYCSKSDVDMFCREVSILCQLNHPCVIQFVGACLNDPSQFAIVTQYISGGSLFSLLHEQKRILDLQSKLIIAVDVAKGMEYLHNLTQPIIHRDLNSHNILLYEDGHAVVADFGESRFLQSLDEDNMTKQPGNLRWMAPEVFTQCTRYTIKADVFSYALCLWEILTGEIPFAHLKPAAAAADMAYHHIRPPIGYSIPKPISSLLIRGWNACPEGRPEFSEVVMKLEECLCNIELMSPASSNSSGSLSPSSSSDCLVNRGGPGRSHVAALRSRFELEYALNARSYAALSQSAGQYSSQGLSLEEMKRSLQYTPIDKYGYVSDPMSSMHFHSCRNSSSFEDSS
Sequence of STK4 (human) (Q13043 whole entry, looked up): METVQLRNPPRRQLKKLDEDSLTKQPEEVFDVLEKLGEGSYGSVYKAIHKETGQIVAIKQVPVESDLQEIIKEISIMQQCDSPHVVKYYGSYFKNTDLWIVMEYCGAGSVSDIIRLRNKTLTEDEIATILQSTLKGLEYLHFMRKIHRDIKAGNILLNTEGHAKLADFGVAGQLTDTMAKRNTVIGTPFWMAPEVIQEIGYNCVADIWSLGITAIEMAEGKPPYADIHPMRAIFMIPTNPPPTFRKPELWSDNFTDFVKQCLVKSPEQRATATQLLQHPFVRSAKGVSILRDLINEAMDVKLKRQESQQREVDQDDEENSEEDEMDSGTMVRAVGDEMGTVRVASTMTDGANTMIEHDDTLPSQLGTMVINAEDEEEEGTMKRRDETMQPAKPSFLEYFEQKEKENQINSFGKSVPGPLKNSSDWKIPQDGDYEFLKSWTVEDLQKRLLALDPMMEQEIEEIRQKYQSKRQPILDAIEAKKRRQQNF
Sequence of EPHA1 (human) (P21709 whole entry, looked up): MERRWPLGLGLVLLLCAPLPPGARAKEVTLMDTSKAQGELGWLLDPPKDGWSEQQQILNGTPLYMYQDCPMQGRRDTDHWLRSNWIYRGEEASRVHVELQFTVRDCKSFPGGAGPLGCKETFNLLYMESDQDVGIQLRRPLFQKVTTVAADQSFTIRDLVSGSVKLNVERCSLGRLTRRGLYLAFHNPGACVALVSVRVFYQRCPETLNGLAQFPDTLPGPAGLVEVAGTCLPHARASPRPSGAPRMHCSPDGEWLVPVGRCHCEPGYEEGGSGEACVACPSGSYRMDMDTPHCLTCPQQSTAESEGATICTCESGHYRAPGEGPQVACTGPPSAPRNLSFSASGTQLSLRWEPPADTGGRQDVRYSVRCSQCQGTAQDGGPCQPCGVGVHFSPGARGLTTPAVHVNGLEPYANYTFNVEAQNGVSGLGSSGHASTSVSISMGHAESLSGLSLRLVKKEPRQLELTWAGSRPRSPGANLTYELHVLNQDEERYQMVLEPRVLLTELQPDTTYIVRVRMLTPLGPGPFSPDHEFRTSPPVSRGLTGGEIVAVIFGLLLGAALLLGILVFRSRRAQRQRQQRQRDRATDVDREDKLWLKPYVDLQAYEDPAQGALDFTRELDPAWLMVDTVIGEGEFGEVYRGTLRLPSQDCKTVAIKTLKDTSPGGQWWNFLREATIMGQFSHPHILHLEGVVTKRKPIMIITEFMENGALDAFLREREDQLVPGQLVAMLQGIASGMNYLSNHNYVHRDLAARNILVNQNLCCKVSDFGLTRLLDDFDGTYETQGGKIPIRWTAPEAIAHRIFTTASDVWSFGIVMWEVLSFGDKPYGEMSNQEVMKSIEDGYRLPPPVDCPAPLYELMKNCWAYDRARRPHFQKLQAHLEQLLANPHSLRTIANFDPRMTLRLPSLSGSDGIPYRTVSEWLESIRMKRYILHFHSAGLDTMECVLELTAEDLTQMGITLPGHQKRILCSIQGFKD
Sequence of MAP3K1 (human) (Q13233 whole entry, looked up): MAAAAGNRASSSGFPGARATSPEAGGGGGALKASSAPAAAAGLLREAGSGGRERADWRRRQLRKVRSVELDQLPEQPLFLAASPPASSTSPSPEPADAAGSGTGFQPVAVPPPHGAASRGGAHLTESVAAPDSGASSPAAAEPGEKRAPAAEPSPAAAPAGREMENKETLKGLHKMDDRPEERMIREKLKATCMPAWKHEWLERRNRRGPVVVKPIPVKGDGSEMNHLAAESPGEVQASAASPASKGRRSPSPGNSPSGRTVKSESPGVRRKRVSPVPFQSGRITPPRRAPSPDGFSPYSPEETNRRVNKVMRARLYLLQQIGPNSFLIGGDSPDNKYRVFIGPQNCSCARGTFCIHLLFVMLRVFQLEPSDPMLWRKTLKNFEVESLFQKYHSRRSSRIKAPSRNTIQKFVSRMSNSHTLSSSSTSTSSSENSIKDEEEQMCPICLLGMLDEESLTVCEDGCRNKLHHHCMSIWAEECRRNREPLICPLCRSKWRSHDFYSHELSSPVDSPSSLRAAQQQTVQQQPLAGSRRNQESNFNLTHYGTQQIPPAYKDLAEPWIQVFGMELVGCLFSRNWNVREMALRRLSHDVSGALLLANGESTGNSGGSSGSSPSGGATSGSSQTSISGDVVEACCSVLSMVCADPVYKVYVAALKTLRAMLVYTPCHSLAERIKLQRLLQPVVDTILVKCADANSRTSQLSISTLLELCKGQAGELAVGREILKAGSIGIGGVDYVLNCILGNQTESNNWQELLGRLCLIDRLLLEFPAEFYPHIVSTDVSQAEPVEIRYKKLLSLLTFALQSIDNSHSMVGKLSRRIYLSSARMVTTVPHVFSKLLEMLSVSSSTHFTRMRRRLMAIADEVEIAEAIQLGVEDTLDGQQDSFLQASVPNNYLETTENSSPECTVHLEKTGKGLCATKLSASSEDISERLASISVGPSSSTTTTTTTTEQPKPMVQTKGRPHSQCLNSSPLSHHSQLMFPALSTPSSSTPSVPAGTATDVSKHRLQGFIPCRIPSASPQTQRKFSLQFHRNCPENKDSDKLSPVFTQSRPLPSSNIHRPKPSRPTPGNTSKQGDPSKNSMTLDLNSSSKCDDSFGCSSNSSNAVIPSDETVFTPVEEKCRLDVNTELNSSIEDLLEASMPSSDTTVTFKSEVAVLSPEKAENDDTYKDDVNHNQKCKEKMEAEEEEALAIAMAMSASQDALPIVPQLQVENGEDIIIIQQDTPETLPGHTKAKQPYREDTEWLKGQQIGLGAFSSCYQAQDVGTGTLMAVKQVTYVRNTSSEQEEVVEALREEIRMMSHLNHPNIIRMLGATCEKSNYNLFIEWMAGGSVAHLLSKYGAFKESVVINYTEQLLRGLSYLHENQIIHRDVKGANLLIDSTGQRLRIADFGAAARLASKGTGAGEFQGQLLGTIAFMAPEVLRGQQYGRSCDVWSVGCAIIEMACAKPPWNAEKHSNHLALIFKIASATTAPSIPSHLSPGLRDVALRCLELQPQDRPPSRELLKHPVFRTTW
Sequence of MAPK8 (human) (P45983 whole entry, looked up): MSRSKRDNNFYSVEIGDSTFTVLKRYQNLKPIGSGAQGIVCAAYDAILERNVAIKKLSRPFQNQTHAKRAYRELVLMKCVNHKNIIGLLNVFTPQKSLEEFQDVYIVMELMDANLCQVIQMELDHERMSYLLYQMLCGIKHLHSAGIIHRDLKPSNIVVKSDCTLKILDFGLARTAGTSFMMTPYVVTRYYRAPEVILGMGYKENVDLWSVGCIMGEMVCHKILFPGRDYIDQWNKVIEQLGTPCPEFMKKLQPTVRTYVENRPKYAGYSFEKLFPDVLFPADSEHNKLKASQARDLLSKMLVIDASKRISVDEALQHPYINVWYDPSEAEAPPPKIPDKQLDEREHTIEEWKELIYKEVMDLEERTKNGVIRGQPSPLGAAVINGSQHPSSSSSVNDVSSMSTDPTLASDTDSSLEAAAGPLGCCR

Row | Compound | kinase still bound, per cent of control (ADCK4 (human)) [%] | kinase still bound, per cent of control (CAMK2D (human)) [%] | kinase still bound, per cent of control (CDKL1 (human)) [%] | kinase still bound, per cent of control (CHEK2 (human)) [%] | kinase still bound, per cent of control (CIT (human)) [%] | kinase still bound, per cent of control (CRK2 (P.falciparum)) [%] | kinase still bound, per cent of control (CSNK1G2 (human)) [%] | kinase still bound, per cent of control (CSNK1G3 (human)) [%] | kinase still bound, per cent of control (DCLK1 (human)) [%] | kinase still bound, per cent of control (DYRK1A (human)) [%] | kinase still bound, per cent of control (EPHA1 (human)) [%] | kinase still bound, per cent of control (EPHB3 (human)) [%] | kinase still bound, per cent of control (HIPK3 (human)) [%] | kinase still bound, per cent of control (IKBKB (human)) [%] | kinase still bound, per cent of control [1] [%] | kinase still bound, per cent of control (KDR (human)) [%] | kinase still bound, per cent of control (LIMK1 (human)) [%] | kinase still bound, per cent of control (MAP3K1 (human)) [%] | kinase still bound, per cent of control (MAP3K6 (human)) [%] | kinase still bound, per cent of control (MAP4K1 (human)) [%] | other results
1 | CNC(=O)Nc1ccc(-c2nc(N3CC4CCC(C3)O4)c3cnn(C4CCC5(CC4)OCCO5)c3n2)cc1 | 100 | 100 | 84 | 84 | 100 | 100 | 95 | 48 | 100 | 100 | 81 | 92 | 42 | 79 | 90 | 76 | 95 | 58 | 80 | 94 | kinase still bound, per cent of control (MAPK8 (human)): 91%; kinase still bound, per cent of control (MARK3 (human)): 92%; kinase still bound, per cent of control (NTRK1 (human)): 100%; kinase still bound, per cent of control (NTRK2 (human)): 100%; kinase still bound, per cent of control (NTRK3 (human)): 93%; kinase still bound, per cent of control (PAK7 (human)): 100%; kinase still bound, per cent of control (PLK1 (human)): 77%; kinase still bound, per cent of control (PLK4 (human)): 75%; kinase still bound, per cent of control (PRKCD (human)): 100%; kinase still bound, per cent of control (PRKCH (human)): 91%; kinase still bound, per cent of control (PRKD1 (human)): 100%; kinase still bound, per cent of control (PRKX (human)): 100%; kinase still bound, per cent of control (RIPK1 (human)): 83%; kinase still bound, per cent of control (RPS6KA6 KD2 (human)): 84%; kinase still bound, per cent of control (SLK (human)): 100%; kinase still bound, per cent of control (STK4 (human)): 100%; kinase still bound, per cent of control (SYK (human)): 100%; kinase still bound, per cent of control (TLK2 (human)): 100%; kinase still bound, per cent of control (TNNI3K (human)): 59%; kinase still bound, per cent of control (YES1 (human)): 97%
2 | N#C/C(=C1/Nc2ccccc2S1)c1ccnc(NCCc2cccnc2)n1 | 45 | 64 | 45 | 94 | 59 | 100 | 77 | 100 | 78 | 0 | 100 | 100 | 0.25 | 68 | 10 | 100 | 78 | 65 | 100 | 100 | kinase still bound, per cent of control (MAPK8 (human)): 0%; kinase still bound, per cent of control (MARK3 (human)): 100%; kinase still bound, per cent of control (NTRK1 (human)): 57%; kinase still bound, per cent of control (NTRK2 (human)): 56%; kinase still bound, per cent of control (NTRK3 (human)): 69%; kinase still bound, per cent of control (PAK7 (human)): 76%; kinase still bound, per cent of control (PLK1 (human)): 72%; kinase still bound, per cent of control (PLK4 (human)): 68%; kinase still bound, per cent of control (PRKCD (human)): 100%; kinase still bound, per cent of control (PRKCH (human)): 100%; kinase still bound, per cent of control (PRKD1 (human)): 100%; kinase still bound, per cent of control (PRKX (human)): 81%; kinase still bound, per cent of control (RIPK1 (human)): 100%; kinase still bound, per cent of control (RPS6KA6 KD2 (human)): 52%; kinase still bound, per cent of control (SLK (human)): 100%; kinase still bound, per cent of control (STK4 (human)): 100%; kinase still bound, per cent of control (SYK (human)): 100%; kinase still bound, per cent of control (TLK2 (human)): 75%; kinase still bound, per cent of control (TNNI3K (human)): 93%; kinase still bound, per cent of control (YES1 (human)): 81%

Source: the kinase profiling compilation of Christmann-Franck et al. (2016)
